86 compounds from a melting point compilation (Tetko et al.; mined from patent text by program, amines drawn as free bases though some values may be those of a salt) can be followed below.

With `COc1cc(C(=O)NS(=O)(=O)c2ccccc2C)ccc1Cn1cc(CCC(=O)N(C)C)c2ccc(CCC(=O)N(C)C)cc21`, the melting point fell in the range of 105 to 109 °C.

With `O=C(CC(Cc1ccccc1)C(=O)O)c1ccc(Cl)cc1` (racemic), the melting point was 137 to 138 °C. Then `O=C1C=Cc2cc3c(cc2=C1)C=C(S(=O)(=O)NCCN1CCOCC1)C(=O)C=3S(=O)(=O)NCCN1CCOCC1`, with 230 to 233 °C. In turn, `COc1cc(C)c(C(=O)c2c(Cl)cccc2Cl)cc1[N+](=O)[O-]` returned a melting point of 156 to 160 °C. For `CC(C)(C)NC(=NC#N)Nc1cc(F)cc(Cl)c1`, the melting point fell in the range of 156 to 157 °C. To `COC(=O)c1[nH]c2ccccc2c1Oc1ccccc1[N+](=O)[O-]` belongs 201 to 202 °C; to `COc1c(C2CCN(CCCCNC(=O)c3sc(-c4ccc(C#N)cc4)nc3CO)CC2)ccc2c1CCCC2`, 212 °C.

In turn, `COc1ccc(-c2cc3cc(OC)cc([N+](=O)[O-])c3o2)cc1` registered a melting point of 141 °C. Then `Cc1nc(C)c(Cl)c(NCc2nccc(SCCCSc3ncccn3)c2C)n1`, with 158 to 159 °C; and `CCC(=O)c1c(C)cc(NC(C)(C)C)nc1NC(C)(C)C`, with 102 to 103 °C; and `Cc1cc2n[nH]c(=O)n2nc1-c1ccc(C#N)cc1`, with more than 300 °C. To `CCCc1ncc(C(=O)OCC)c(NCc2ccc(-c3ccccc3-c3nnn[nH]3)cc2)n1` belongs 146 to 147 °C.

In turn, `CCO/C(=N/OC(C)=O)C1Cc2cc(C(=O)c3ccccc3F)c(O)c(Cl)c2O1` (stereo unspecified) displayed a melting point of 111 to 112 °C.

Turning to `C=C(C)COc1cc(C)c2c(c1C)CC(C)(C)N2C=O`, the melting point fell in the range of 83 to 95 °C. `CCOC(=O)c1cn(-c2cccnc2)nc1Cl` came in with a melting point of 90 to 93 °C.

On to `CC(C)(C)C(=O)CC(c1ccc(Cl)cc1)S(=O)(=O)c1ccccc1` (stereo unspecified), for which the melting point lay within 145 to 146 °C. To `Cc1c(C(=O)Nc2ccc(N3CCN(CCN(C)C)CC3)c(C#N)c2)cnn1-c1ccc(F)cc1` belongs 185 °C; to `Clc1ccc(C=Cc2ccccc2)cc1`, 129 to 130 °C.

As for `CCC1(C)CC(=O)C(C(=O)Nc2cc(C(F)(F)F)cc(C(F)(F)F)c2)C(=O)C1` (stereo unspecified), the melting point lay in the range of 72 to 73 °C. As to `CCOc1cc(N)c(Cl)cc1C(=O)NCC1CN(CC2CCN(Cc3cccc(F)c3)CC2)CCO1` (stereo unspecified), the melting point lay in the range of 172 to 174 °C.

Take `O=S(=O)(Nc1ccc2c(OCc3ccc(-c4ccc(C(F)(F)F)cc4)cc3F)cccc2c1)C(F)(F)F`: the melting point lay in the range of 98 to 100 °C. To `CC(C)(C)OC(=O)NC(Cc1c[nH]c2ccccc12)C(=O)C=Cc1cc(C(F)(F)F)cc(C(F)(F)F)c1` (stereo unspecified) belongs 137 to 138 °C; to `NC(=O)c1cccc(CCCBr)c1`, 109 °C. `CC(C)C(=O)NC(N)=S`: the melting point is 114 to 116 °C.

The compound `CC(=NO)c1ncnc(OC(C)C)c1C` had a melting point of 95.4 to 96.5 °C. To `CC(=O)OCC1C(O)C2OC(C)(C)OC2C2NC(=O)c3cc4c(cc3C12)OCO4` (stereo unspecified) belongs more than 200 °C; to `O=C(O)Cc1ccc2c(c1)C(=O)C(=Cc1ccccc1)C2`, 202 to 204 °C; to `C[C@H]1N(C(=O)OCc2ccccc2)COC1(O)c1ccc(OCc2ccccc2)cc1` (stereo partly specified), 82 to 86 °C. Compound `CN(Cc1cc(C(F)(F)F)cc(C(F)(F)F)c1)C(=O)c1nc(N2CCOCC2)ncc1-c1ccccc1` registered a melting point of 154 to 155 °C. To `N=C1c2c(F)cccc2S(=O)(=O)N1CC1CC1` belongs 90 to 93 °C; to `O=C1NCCc2c(-c3ccc(C(F)(F)F)cc3)[nH]c3cccc1c23`, 208 to 209 °C. Consider `CCOc1ccccc1OCC1CN=C(N)O1` (stereo unspecified), for which the melting point is 130 °C. To `COc1ccc(S(=O)(=O)C(CCCCOc2ccccc2)(Cc2cccnc2)C(=O)NO)cc1` (stereo unspecified) belongs 68 °C; to `CCCc1nc2c(N)nc3cc(-c4cccc(C(=O)N(CC)CC)c4)ccc3c2s1`, 169 to 172 °C. To `CCC(CC)c1ccc(Cl)c2nc3n(c12)CCN3c1ccc(Cl)cc1C(N)=O` belongs more than 300 °C; to `COc1ccc(C2CCN(C(=O)CC(N)=O)CC2)cc1OC1CCCC1`, 132 to 133 °C.

`Clc1nc2c([nH]1)CCCCC2` returned a melting point of 214 to 215 °C. To `CC(C)N(C(=O)CN1C(=O)C(NC(=O)Nc2ccccc2)C(=O)N(c2ccccc2)c2ccccc21)c1ccccc1` (stereo unspecified) belongs 230 to 235 °C. Then `O=C1CSC=C2c3ccccc3C=CN12`, with 104 to 106 °C; and `O=C(/C=C/C=C/c1ccccc1[N+](=O)[O-])NCCCCCC(=O)NO`, with 131 to 133 °C; and `CC(C)Oc1ccc(CCCOc2cc(CCC(=O)O)n(Cc3ccccc3)n2)c(Oc2ncc(C(F)(F)F)cc2Cl)c1`, with 99 to 100 °C.

`CCN1CCN(c2ccnc3c(NC(=O)c4c(Cl)cccc4Cl)ccc(C)c23)C1=O` registered a melting point of 235 to 236 °C. `N#CC(Cl)CS(=O)(=O)c1ccc(OC(F)(F)C(Cl)Cl)cc1` (stereo unspecified) had a melting point of 109 °C. Consider `Cc1cc(C)nc(NC(=O)NS(=O)(=O)c2ccccc2C(Cl)Cl)n1`, for which the melting point lay within 195 to 197 °C. To `COc1cc2c(cc1OCC(=O)O)C1Cc3c(Cl)cc(OC)c(OCC(=O)O)c3CN1CC2` (stereo unspecified) belongs 202 to 204 °C. For the compound `CCn1c2ccccc2c2cc(NC(=O)c3ccccc3C(F)(F)F)ccc21`, the melting point is 206 to 207 °C. `Cc1n[nH]c2ccccc12` had a melting point of 110 to 113 °C. Consider `CCCCCCCCCCCc1cc2ccc(C(=O)OCC)cc2[nH]1`, for which the melting point is 84 to 86 °C. To `COc1ccc(CCc2ccc(-n3c(C)nc4cnccc43)cc2)cc1OC1CCCC1` belongs 123 to 125 °C.

`CCC1(COC(=O)C(C)(C)C)COC(=O)C(CC)(CC)N1` (stereo unspecified) displayed a melting point of 37 to 41 °C. `CCN(CC)C(=O)c1ccc2ccccc2c1-c1ccc(C)cc1` yielded a melting point of 181 to 183 °C. Then `CCCCCN(CCCCC)CCC(O)(P(=O)(O)O)P(=O)(O)O`, with 47 to 49 °C; and `COC(=O)C=CC(=O)c1ccc(Oc2ccccc2)cc1`, with 88 to 90 °C; and `CCOC(=O)C(=CNc1ccc(F)c(Cl)c1)C(=O)OCC`, with 71.5 to 72.5 °C. Compound `Cc1nn(-c2ccccn2)c2c1C(O)CC(C)(C)C2` (stereo unspecified) yielded a melting point of 125 to 126 °C. As for `CCN(CC)CCCNc1ncc2cc(-c3c(C)cccc3C)c(NC(=O)NC(C)(C)C)nc2n1`, the melting point is 86 to 91 °C. Then `CNC1CCN(c2c(F)cc3c(=O)c(C(=O)O)cn(C4CC4)c3c2OC)CC1(C)C` (stereo unspecified), with 246 to 248 °C; and `CN(C)C1(c2ccccc2)CCC2(OCCc3c2[nH]c2ccc(F)cc32)C(Cc2cccc(F)c2)C1` (stereo unspecified), with 133 to 135 °C. To `Clc1ccc2nc(Cl)nnc2c1` belongs 113 to 115 °C. Compound `CC(C)(C)c1cc(-n2nc3ccc(Sc4ccc5nn(-c6cc(C(C)(C)C)cc(C(C)(C)C)c6O)nc5c4)cc3n2)c(O)c(C(C)(C)C)c1` returned a melting point of 245 to 246 °C. Regarding `COCCOCCOCC(=O)Nc1cc(C(=O)O)cc([N+](=O)[O-])c1`, the melting point lay within 136 to 137 °C. Then `OC(COc1cccc2[nH]ccc12)CN1CCC(c2c[nH]c3cc(F)ccc23)CC1` (single isomer, unassigned; (+)), with 94 to 97 °C; and `CCS(=O)(=O)Nc1cc(-n2nc3ccc(Cl)cn3c2=O)c(F)cc1Cl`, with 120 to 122 °C. Then `O=C(Nc1cccnc1)N1CCN(c2cc(-c3ccc(F)cc3F)ncn2)CC1`, with 171 to 172 °C; and `C=CCn1cc(Cl)cnc1=O`, with 130 to 131 °C; and `O=C1OC(=O)c2cc3ccc(C(F)(F)F)cc3c3cccc1c23`, with 310 to 312 °C. To `CCn1c2ccccc2c2cc(C#N)ccc21` belongs 183 to 185 °C. As to `Fc1cc(CC2(Cc3ccnc(F)c3)c3ccccc3-c3cccnc32)ccn1`, the melting point is 128 to 130 °C. To `COC1(C)C(=O)C(c2ccccc2)=C1c1ccc(S(C)(=O)=O)cc1` (stereo unspecified) belongs 145 °C; to `NC1(C(=O)NOCc2ccccc2)CCCC1`, 94 to 96 °C. To `O=C1NCc2c1cc1ccc3c(c1c2-c1ccc(C(F)(F)F)cc1)OCO3` belongs 315 to 317 °C; to `N#CN=CNC1c2ccccc2CC2CCCCC21` (stereo unspecified), 145 to 165 °C; to `COc1cc2c(cc1OC)CN(C(=O)C13CC4CC(CC(C4)C1)C3)CC2`, 151 to 155 °C. On to `CCOC(=O)C=Cc1cccc(I)c1`, for which the melting point came out at 36.3 °C. Regarding `c1cnc(-c2nc(C3CC3)no2)cn1`, the melting point lay in the range of 61 to 64 °C. `Cc1ccc(S(=O)(=O)n2c(Br)cc(-c3ccc(F)cc3)c2-c2ccc(S(C)(=O)=O)cc2)cc1` returned a melting point of 207 to 208 °C. To `CCOC(=O)c1c(C)noc1NS(=O)(=O)c1ccccc1-c1ccc(CC(C)C)cc1` belongs 133 to 134 °C; to `COc1cc(COc2nn(Cc3ccccc3)cc2CC(=O)O)ccc1OCc1nc(-c2ccccc2)oc1C`, 99 to 100 °C.

The compound `CCCCC(CC)C(=O)Nc1ccc2ccn(Cc3ccc(C(=O)NS(=O)c4ccccc4)cc3OC)c2c1` (stereo unspecified) yielded a melting point of 122 to 126 °C. To `CC(C)(C)c1ccc(-c2nnc(-c3ccc(C(=O)O)cc3[N+](=O)[O-])o2)cc1` belongs 233 to 235 °C; to `CCCCN1CCOC2c3cccc4[nH]cc(c34)CC21` (stereo unspecified), 134 to 140 °C; to `C1=CC(n2c(-c3ccc4c(c3)OCO4)nc3ccccc32)CCC1` (stereo unspecified), 119 to 120 °C. Then `Cc1ccc([N+](=O)[O-])c(C=C2C(=O)NC(=O)N2C)c1`, with 261 to 262 °C; and `Cc1nc2ccc(-c3ccc(OCC4(NC(=O)OCc5ccccc5)COC4)cc3)nn2c1-c1cnc(N)c(C(F)(F)F)c1`, with 209 to 212 °C. `Cc1nc(Nc2ccccc2)sc1C(=O)c1ccc(Cl)c([N+](=O)[O-])c1` gave a melting point of 162 to 165 °C.

Turning to `CC(C)(C)OC(=O)N(C(=N)NS(=O)(=O)C(F)(F)F)C(=O)OC(C)(C)C`, the melting point was in the range of 114 to 115 °C.
